Here are results for 8 compounds from patent publication EP0727211A1, “Use of src SH2 specific compounds to treat a bone resorption disease” (SMITHKLINE BEECHAM CORPORATION, priority 1995, dated 1996).

Bounds are passed on as bounds.

The target of this assay is T1, human SH-PTP2 SH2 domain (Homo sapiens, UniProt Q06124).
T1 construct: SH2 domain of human SH-PTP2 (amino acids 1-106); made in house; host or cells: E. coli (pGEX-2T)
T1 sequence (Q06124 1-106): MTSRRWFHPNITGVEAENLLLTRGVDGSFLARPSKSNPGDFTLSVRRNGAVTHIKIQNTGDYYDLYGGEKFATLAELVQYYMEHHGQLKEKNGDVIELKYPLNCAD
Description: SH2 domain / pY peptide binding assay (ELISA-based, 96 well plate), SH-PTP2 SH2. Conditions: for Ki: Ki calculated from IC50 by the expanded equation, Table II; for IC50: cloned human SH2 domain fusion protein, 0.1 uM biotinylated pY peptide, Table I. How it is done: The inhibitory activity of compounds at the different human SH2 domains was determined in vitro using SH2 domains expressed as fusion proteins in E. coli. The SH2 domains used herein were the human forms of the src SH2 domain, Grb2 SH2 domain, lck SH2 domain, fyn SH2 domain, SH-PTP2 SH2 domain, p85 SH2 domain and hcp SH2 domain.
Fusion proteins having the structure GST-X-SH2 were prepared as described in the GST gene fusion kit system available from Pharmacia (New Jersey). GST is the tagging sequence glutathione s-transferase epitope (SEQ ID NO: 8) for fyn, Grb2 and SH-PTP2 and is the tagging sequence glutathione s-transferase epitope (SEQ ID NO: 9) for p85. SH2 refers to the SH2 domains of fyn, Grb2, p85 and SH-PTP2 which were expressed and purified using glutathione Sepharose 4B (Pharmacia) according to "Current Protocols in Molecular Biology", ed. FM Ausubel et al., pub. John Wiley and Sons, Inc., (1995), p 16.7.1. X is an appropriate linker, preferably of 6 to 21 base pairs, used to keep the SH2 construct in frame and complement cloning. As such, the sequence of X is not critical. One skilled in the art can readily construct the appropriate linker. The DNA sequence encoding each GST-X-SH2 fusion protein was designed such that the indicated restriction sites (BamH1 and EcoRI) flank the SH2 region. The vector used in the instant experiments was the E. coli expression vector pGEX-2T (Pharmacia) for fyn, Grb2 and SH-PTP2, and pGEX-3X (Pharmacia) for p85. Each of these vectors result in SH2 constructs having additional C-terminal amino acids as described below.
Human SH-PTP2 SH2 domain: The sequence encoding the SH2 domain of human SH-PTP2 (amino acids 1-106))(Bastien, L. et al., Biochem. Biophys. Res. Commun. 196, 124-133 (1993)) was cloned into the BamHI and EcoRI sites of the expression vector pGEX-2T. The SH2 domain including the additional C-terminal amino acids glutamine-phenylalanine-isoleucine-valine-threonine-aspartate (SEQ ID NO: 12) was cloned by PCR techniques known to those skilled in the art to yield the expressed fusion protein GST-X-SH-PTP2.
The binding assays for the SH2 domains and pY peptides were performed in an ELISA-based 96 well plate assay. In Millipore 96 well filter plates, hydrophilic Durapore® (pore size 0.65um Cat. No. MADVN6550), was added 2 ul (50% suspension) of Protein-G Sepharose (available from Pharmacia of N.J. Cat. No. 17-0618-01) and either 2 ul of 2 mg/ml of MAB178. (for gp120/SH2 domain fusion proteins src, lck and hcp) or 0.25 ul of anti-GST polyclonal antisera (available from Pharmacia of N.J.) (for GST/SH2 domain fusion proteins fyn, Grb2, p85 and SH-PTP2). 10 pmol of the subject SH2 domain fusion protein were added to their respective wells. The volume was brought to 100 ul with TBS-T (tris buffered saline plus 0.05% tween-20), incubated and shaken at room trmperature for 1 hr. then washed 1x with TBS-T (4°C). 90 ul of TBS-T were then added to each well. Specific pY biotinylated peptides were diluted to a concentration of 1.0 uM in TBS-T (these peptides can be obtained from Bachem Bioscience of Pennsylvania, Genosys Biotechnologies of Texas and California Peptide Research of California). 10 ul was aliquoted per well to yield a final concentration of 0.1 uM (approx, the Kd for each SH2 domain/peptide pair) and a final volume of 100 ul. The assay plates were incubated until equilibrium binding was attained (3 hr at 4°C with shaking). The assay plates were washed 2 X per well TBS-T (4°C), then 100 ul of SABC (Strepavidin biotinylated horseradish peroxidase complex, available from the Zymed corporation of California cat. no. 93-0043, 1 drop reagent A (streptavidin) and 1 drop of reagent B (AH-biotin conjugated-horseradish peroxidase) per 10 ml of TBS-T, incubated at 37°C for 30 minutes, then cooled to 4°C) was added per well, then incubated at 4°C for 30-60 minutes. The plates were then washed 4 X with TBS-T (4°C) (250 ul/well)/wash). […]

A word on the Ki: it is a measure of affinity in units of concentration, obtained from inhibition or displacement. By IC50 is commonly meant the concentration that gives 50% inhibition. Read a low IC50 as greater potency. Take `Cc1nnc(SCC2=C(C(=O)O)N3C(=O)[C@@H](NC(=O)C(N)c4ccc(C(=O)O)cc4)[C@H]3SC2)s1` (stereo partly drawn) [Compound 1, 7-[D,L-α-Amino-α-(4-carboxyphenyl)acetamido]-3-[2-(5-methyl-1,3,4-thiadiazolyl)thiomethyl]Δ^3-cephem-4-carboxylic Acid]: the Ki was above 1000 µM and the IC50 was above 300 µM.
For “4-acetamido-benzamido-trans-4-methyl-cyclohexyl-N-1-(amino-R-2-(methoxy methyl)-pyrrolidine) carboxamide [Compound 8]”, in that order: above 1000 µM and above 300 µM.
`CCCCCCNC(=O)[C@H]1CC[C@H](CNC(=O)c2ccc([N+](=O)[O-])cc2)CC1` [Compound 7, 4-nitro-benzamido-trans-4-methyl-cyclohexyl-N-hexyl carboxamide]: the inhibition constant Ki is above 1000 µM and the IC50 was above 300 µM.
The like results for `CCCNC(=O)[C@H]1CC[C@H](CNC(=O)/C=C/c2ccc(C=O)cc2)CC1` [Compound 9, 4-formyl-E-cinnamido-trans-4-methyl-cyclohexyl-N-(propyl) carboxamide] were, in that order, above 1000 µM and above 300 µM.
For `Cc1nc2sc3c(c2c2[nH][nH]c(=O)c12)CCC1(C3)OCCO1` [Compound 3, 8,8-Ethylenedioxy-2,3,7,8,9,10-hexahydro-4-methyl-1H-benzo[b]thieno[2,3-b]pyrazolo[3,4-d]pyridin-3-one], in that order: above 1000 µM and above 300 µM.
For `Cc1nc2sc3c(c2c2[nH][nH]c(=O)c12)CCCC3` [Compound 10, 2,3,7,8,9,10-Hexahydro-4-methyl-1H-benzo[b]thieno[2,3-b]pyrazolo[3,4-d]pyridin-3-one], the Ki was above 1000 µM and the IC50 is above 300 µM.
For `N[C@@H](Cc1cc(Br)c(Oc2ccc(O)c(Cc3ccc(O)nn3)c2)c(Br)c1)C(=O)O` [Compound 2, L-3,5-Dibromo-3'-(6-oxo-3(1H)-pyridazinylmethyl)-thyronine], in that order: above 1000 µM and above 300 µM.
The like results for `Cc1nc2sc3c(c2c2c1c(=O)[nH]n2C)CCC1(C3)OCCO1` [Compound 5, 1,4-Dimethyl-8,8-ethylenedioxy-2,3,7,8,9,10-hexahydro-1H-benzo[b]thieno[2,3-b]pyrazolo[3,4-d]pyridin-3-one] were, in that order, above 1000 µM and above 300 µM.
